Results reported in PMC4757794 (2016).
One block for each molecule: values may come before it.

Key:
[1] = system: 27-mer abasic dsDNA AP_T (DNA, mismatch bulge abasic, abasic at 13 of strand 2) GACCAGCTTATCATTCCTAGATAAGCG/CGCTTATCTAGGNATGATAAGCTGGTC; assay: emission titration; conditions: 50 mM NaCl; 2 mM Tris, pH 7.5; 5 μM 1c; 21.1-fold emission increase
[2] = system: 27-mer abasic dsDNA AP_G (DNA, mismatch bulge abasic, abasic at 13 of strand 2) GACCAGCTTATCATGCCTAGATAAGCG/CGCTTATCTAGGNATGATAAGCTGGTC; assay: emission titration; conditions: 50 mM NaCl; 2 mM Tris, pH 7.5; 5 μM 1c; 14.4-fold emission increase
[3] = system: 27-mer dsDNA with CC mismatch (DNA, mismatch bulge abasic) GACCAGCTTATCATCCCTAGATAAGCG/CGCTTATCTAGGCATGATAAGCTGGTC; assay: emission titration; conditions: 50 mM NaCl; 2 mM Tris, pH 7.5; 5 μM 1c; comparison DNA of abasic titration
[4] = system: self-complementary CC mismatched DNA 5′-C1G2G3A4C5T6C7C8G9-3′ (DNA, mismatch bulge abasic) CGGACTCCG; assay: 1H NMR, NOESY, TOCSY titration; conditions: 20 mM NaCl, 50 mM sodium phosphate; D2O, pH 6.1, 10 °C; shifts at A4 and C5, mismatched site
[5] = system: hairpin DNA oligomer with a CC mismatch (DNA, mismatch bulge abasic) GGCAGGCATGGCTTTTTGCCATCCCTGCC; assay: emission titration
[6] = system: CC mismatched DNA (ITC) (DNA, mismatch bulge abasic) GCGCCGTCGTCCATGTG/CACATGCACGACGGCGC; assay: ITC
[7] = system: normal (matched) 27-mer dsDNA (DNA, duplex) GACCAGCTTATCATCCCTAGATAAGCG/CGCTTATCTAGGGATGATAAGCTGGTC; assay: emission titration; conditions: 50 mM NaCl; 2 mM Tris, pH 7.5; 5 μM 1c; 4.7-fold emission increase
[8] = system: 27-mer abasic dsDNA AP_A (DNA, mismatch bulge abasic, abasic at 13 of strand 2) GACCAGCTTATCATACCTAGATAAGCG/CGCTTATCTAGGNATGATAAGCTGGTC; assay: emission titration; conditions: 50 mM NaCl; 2 mM Tris, pH 7.5; 5 μM 1c; 14.8-fold emission increase
[9] = system: CC mismatched 17-mer dsDNA (DNA, mismatch bulge abasic) GCGCCGTCGTCCATGTG/CACATGCACGACGGCGC; assay: emission titration; conditions: 50 mM NaCl; 2 mM Tris, pH 7.5; 27.5-fold emission increase
[10] = system: matched 17-mer dsDNA (DNA, duplex) GCGCCGTCGTCCATGTG/CACATGGACGACGGCGC; assay: emission titration; conditions: 50 mM NaCl; 2 mM Tris, pH 7.5; 2.8-fold emission increase
[11] = system: 27-mer abasic dsDNA AP_C (DNA, mismatch bulge abasic, abasic at 13 of strand 2) GACCAGCTTATCATCCCTAGATAAGCG/CGCTTATCTAGGNATGATAAGCTGGTC; assay: emission titration; conditions: 50 mM NaCl; 2 mM Tris, pH 7.5; 5 μM 1c; 32.2-fold emission increase
[12] = system: hairpin matched DNA (DNA, hairpin) GGCAGGCATGGCTTTTTGCCATGCCTGCC; assay: emission titration
[13] = system: matched DNA (ITC) (DNA, duplex) GCGCCGTCGTCCATGTG/CACATGGACGACGGCGC; assay: ITC
[14] = system: DNA without an abasic site (melting temperature experiment) (DNA, duplex) GACCAGCTTATCATCCCTAGATAAGCG/CGCTTATCTAGGGATGATAAGCTGGTC; assay: melting temperature; conditions: Tm stated not affected
[15] = 50 mM NaCl, 2 mM Tris, pH 7.5, 0.1 mM complex titrated with 0.75 mM DNA

Structure (SMILES): CCCCN1[C]N(Cc2ccccc2)C=C1.[Pt+2].[c-]1ccccc1-c1cccc(-c2ccccn2)n1
binding [1]: yes
binding [2]: yes
binding [3]: yes
binding [4]: yes
binding ([5]; 50 mM NaCl, 2 mM Tris, pH 7.5, 5 μM 1c, 26.4-fold emission increase at 1 equivalent): yes
Kd [6, 15]: 51.5 ± 8.0 µM
binding [7]: weak
binding [8]: yes
binding [9]: yes
binding [10]: weak
binding [11]: yes
binding ([12]; 50 mM NaCl, 2 mM Tris, pH 7.5, 5 μM 1c, 2.6-fold emission increase at 1 equivalent): weak

Kd ([13]; Na+ 50 mM (Tris 2 mM buffer)): 1.60 ± 0.28 µM
binding ([5]; 12.7-fold emission increase): yes
Kd ([6]; Na+ 50 mM (Tris 2 mM buffer)): 1.32 ± 0.24 µM
binding ([12]; 14.1-fold emission increase): yes
Structure (SMILES): CC[n+]1c(-c2ccccc2)c2cc(N)ccc2c2ccc(N)cc21

Structure (SMILES): CN1[C]N(C)C=C1.[Pt+2].[c-]1ccccc1-c1cccc(-c2ccccn2)n1
Kd [13, 15]: 56.4 ± 13.6 µM
binding ([5]; 8.5-fold emission increase): yes
Kd [6, 15]: 66.2 ± 15.7 µM
binding ([12]; 7.1-fold emission increase): yes

Structure (SMILES): C1CCC(P(CP(C2CCCCC2)C2CCCCC2)C2CCCCC2)CC1.[Pt+2].[Pt+2].[c-]1ccccc1-c1cccc(-c2ccccn2)n1.[c-]1ccccc1-c1cccc(-c2ccccn2)n1
binding ([13]; 50 mM NaCl, 2 mM Tris, pH 7.5, 0.1 mM complex titrated with 0.75 mM DNA, Kd stated negligible): no
binding ([5]; 50 mM NaCl, 2 mM Tris, pH 7.5, 5 μM 2, 50-fold emission increase at 0.5 equivalents): yes
Kd [6, 15]: 7.0 ± 2.1 µM
binding [14]: no
binding ([12]; 50 mM NaCl, 2 mM Tris, pH 7.5, 5 μM 2, 8.2-fold emission increase at 0.5 equivalents): weak
